Data: patent US6900200B2, “Tricyclic hydroxy carboxamides and derivatives thereof tocolytic oxytocin receptor antagonists” (Wyeth, priority 2001, dated 2005)

Target: T1, human vasopressin V1a receptor subtype (Homo sapiens, UniProt P37288)
T1 construct: host or cells: CHO cells; pZeoSV vector for the Thibonnier line
Test: Vasopressin binding in CHO cell membranes expressing human vasopressin V1a subtype receptors ([3H]Manning ligand radioligand binding)
Conditions: @ 100 nM
Source text: Vasopressin Binding in Chinese Hamster Ovary Cell Membranes Expressing Human Vasopressin V1a Subtype Receptors
Chinese hamster ovary cells (CHO cells) stably transfected with the human vasopressin V1a subtype receptors were either obtained from BioSignal Inc., 1744 rue Williams, Montreal, Quebec, Canada or obtained from M. Thibonnier, Case Western Reserve University School of Medicine, Cleveland, Ohio.
A. Passaging and Amplification of Cells
CHO cells transfected with the human vasopressin V1a subtype receptors obtained from M. Thibonnier (pZeoSV vector) are allowed to grow to confluency (approx. >90%) in T-150 flasks under sterile conditions, in a cell culture medium of F-12 Nutrient Mixture (HAM) with L-glutamine (Gibco Cat. #11765-054) containing 15 mM HEPES (Gibco Cat. #15630-080), 1% antibiotic/antimycotic (add 5 mL 100×, Gibco Cat. #15240-062 per 500 mL F-12), 250 μg/mL Zeocin (add 1.25 mL of 100 mg/mL Invitrogen R-250-01 per 500 mL F-12) and 10% Fetal Bovine Serum (Qualified, heat inactivated, Gibco Cat. #16140-063). The medium is removed by aspiration and the cells are washed with 10 mL of Hank's Balanced Salt solution (Gibco Cat. #14175-095). The salt solution is removed by aspiration and the cells are trypsinized with 5 mL of trypsin-EDTA (0.05% trypsin, 0.53 mM EDTA-4Na, Gibco Cat. #25300-070) for 1 min. The trypsin is removed by aspiration and the cells dislodged by tapping. Cell Culture medium (e.g. 30 mL for 1:30 split) is immediately added and mixed well to inactivate trypsin. 1 mL of detached cells is added to new culture flasks containing fresh cell culture medium (e.g., into 25 mL per T-150 flask), and mixed gently. The cells are incubated at 37° C. in 5% CO2. The medium is changed at 3 to 4 days interval (or as appropriate). The cells grow to confluency (approx. >75%-95%) within 7-8 days. All steps are done under sterile conditions.
The cells are washed twice gently with Hank's Balanced Salt solution (e.g,. use 10 mL per T-150 flask). The excess is removed and the cells are bathed for 15-30 min. in an enzyme-free Cell Dissociation Buffer (e.g. use 8 mL Hank's Based, Gibco Cat. #13150-016 per T-150 flask) until the cells are loosened. The contents are transferred to centrifuge tubes (50 mL) kept in an ice bath. All subsequent steps are done at 4° C. The tubes are centrifuged at 300×g for 15 min (1380 rpm on SORVAL, Model RT6000D, using the rotor for 50 mL tubes). The supernatant is discarded and the cells suspended in homogenizing buffer(10 mM Tris-HCl containing 0.25 M sucrose and 1 mM EDTA, pH 7.4) ensuring that the volume of the buffer is about ten times the volume of the cell pellet. The cells are pooled into a centrifuge tube (50 mL) and homogenized with Polytron at setting 6 for 10 sec. The homogenate is transferred into a Potter-Elvjehm homogenizer and homogenized with 3 strokes. The homogenate is centrifuged at 1500×g for 10 min at 4° C. (3100 rpm using SORVAL, model RT6000D, using the rotor for 50 mL tubes). The pellet is discarded. The supernatant is centrifuged at 100,000×g for 60 min. at 4° C. (Beckman L8-80M ultracentrifuge; spin at 37,500 rpm with rotor type 70 Ti for 50 mL tubes; 38,000 rpm with type 80Ti for 15 mL tubes; or 35,800 rpm with rotor type 45Ti). The supernantant is discarded and the pellet suspended in 3 to 4 mL of Tris buffer (50 mM TRIS—HCl, pH 7.4). The protein content is estimated by the Bradford or Lowry method. The volume of the membrane suspension is adjusted with the membrane buffer (50 mM Tris-HCl containing 0.1% BSA and 0.1 mM PMSF) to give 3.0 mg/mL (or as appropriate) of protein. The membranes are aliquoted and stored at −70° C.
C. Radioligand Binding Assay […]

T1 sequence (P37288 whole entry): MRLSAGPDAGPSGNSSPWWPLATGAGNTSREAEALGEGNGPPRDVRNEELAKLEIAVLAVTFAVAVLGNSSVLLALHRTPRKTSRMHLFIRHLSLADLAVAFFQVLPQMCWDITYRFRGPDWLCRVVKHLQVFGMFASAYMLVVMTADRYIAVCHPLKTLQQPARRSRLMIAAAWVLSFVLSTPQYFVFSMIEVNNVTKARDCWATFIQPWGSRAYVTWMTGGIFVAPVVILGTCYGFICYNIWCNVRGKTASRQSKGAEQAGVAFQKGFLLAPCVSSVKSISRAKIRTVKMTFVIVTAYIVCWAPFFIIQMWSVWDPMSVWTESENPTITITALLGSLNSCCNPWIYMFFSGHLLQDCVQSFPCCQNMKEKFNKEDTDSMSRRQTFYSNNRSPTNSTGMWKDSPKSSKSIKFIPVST

inhibition at 0.1 µM [%] | Compound
68 | COc1ccccc1-c1ccc(C(=O)N2Cc3ccc(C(=O)N(C)C[C@@H](O)CO)n3Cc3ccccc32)cc1C (single isomer, unassigned) [Example 16]
52 | COc1cccc(-c2ccc(C(=O)N3Cc4ccc(C(=O)N5CCN(CCO)CC5)n4Cc4ccccc43)cc2OC)c1 [Example 50, {10-[(2,3′-Dimethoxy[1,1′-biphenyl]-4-yl)carbonyl]-10,11-dihydro-5H-pyrrolo[2,1-c][1,4]benzodiazepin-3-yl}[4-(2-hydroxyethyl)-1-piperazinyl]methanone]
6 | COc1cc2c(cc1OC)N(C(=O)c1ccc(-c3ccccc3OC)c(C)c1)Cc1ccc(C(=O)N(C)C[C@H](O)[C@@H](O)[C@H](O)[C@H](O)CO)n1C2 [Example 37, 7,8-Dimethoxy-10-[(2′-methoxy-2-methyl-[1,1′-biphenyl]-4-yl)carbonyl]-10,11-dihydro-5H-pyrrolo[2,1-c][1,4]benzodiazepine-3-carboxylic acid methyl-[(2S, 3R, 4R, 5R)-2,3,4,5,6-pentahydroxy-hexyl)-amide]
17 | COc1cccc(-c2ccc(C(=O)N3Cc4ccc(C(=O)N5CCN(CCO)CC5)n4Cc4ccccc43)cc2C)c1 [Example 44, [4-(2-Hydroxyethyl)-1-piperazinyl]{10-[(3′-methoxy-2-methyl[1,1′-biphenyl]-4yl)carbonyl]-10,11-dihydro-5H-pyrrolo[2,1-c][1,4]benzodiazepin-3-yl}methanone]
-2 | COCCN1CCN(C(=O)c2ccc3n2Cc2ccccc2N(C(=O)c2ccc(-c4ccccc4C(F)(F)F)c(C)c2)C3)CC1 [Example 7, Methyl 2-{4-[(10-{[2-methyl-2′-trifluoromethyl-[1,1′-biphenyl]-4-yl]carbonyl}-10,11-dihydro-5H-pyrrolo[2,1-c][1,4]benzodiazepin-3-yl)carbonyl]piperazin-1-yl}ethyl ether]
12 | COc1ccccc1-c1ccc(C(=O)N2Cc3ccc(C(=O)N4CCN(CCO)CC4)n3Cc3ccccc32)cc1 [Example 47, [4-(2-Hydroxyethyl)-1-piperazinyl]{10-[(2′-methoxy[1,1′-biphenyl]-4-yl)carbonyl]-10,11-dihydro-5H-pyrrolo[2,1-c][1,4]benzodiazepin-3-yl}methanone]
7 | Cc1cc(C(=O)N2Cc3ccc(C(=O)N4CCN(CCO)CC4)n3Cc3ccccc32)ccc1-c1ccccc1C(F)(F)F [Example 48, [4-(2-Hydroxyethyl)-1-piperazinyl](10-{[2-methyl-2′-(trifluoromethyl)[1,1′-biphenyl]-4-yl)carbonyl}-10,11-dihydro-5H-pyrrolo[2,1-c][1,4]benzodiazepin-3-yl)methanone]
59 | COc1ccccc1-c1ccc(C(=O)N2Cc3ccc(C(=O)N(C)C[C@H](O)CO)n3Cc3ccccc32)cc1C (single isomer, unassigned) [Example 15]
5 | O=C(c1ccc2n1Cc1ccccc1N(C(=O)c1ccc(-c3cccc4ccccc34)cc1Cl)C2)N1CCN(CCO)CC1 [Example 25, 2-{4-[10-{[2-Chloro-4-(naphthalen-1-yl)phenyl]carbonyl}-(10,11-dihydro-5H-pyrrolo[2,1-c][1,4]benzodiazepin-3-yl)carbonyl]piperazine-1-yl}-1-hydroxyethane]

Same assay, conditions: value printed in parentheses

IC50 [nM] | Compound
2010 | COC[C@@H](O)CN1CCN(C(=O)c2ccc3n2Cc2ccccc2N(C(=O)c2ccc(-c4ccccc4C(F)(F)F)c(C)c2)C3)CC1 [Example 9, [3-({4-[(2S)-2-Hydroxy-3-methoxypropyl]-1-piperazinyl}carbonyl)-5H-pyrrolo[2,1-c][1,4]benzodiazepin-10(11H)-yl][2-methyl-2′-trifluoromethyl-[1,1′-biphenyl]-4-yl]methanone]
1800 | COCC(CN(C)C(=O)c1ccc2n1Cc1ccccc1N(C(=O)c1ccc(-c3ccccc3C(F)(F)F)c(C)c1)C2)OC (stereo not drawn) [Example 10, N-(2,3-Dimethoxypropyl)-N-methyl-10-{[2-methyl-2′-trifluoromethyl-[1,1′-biphenyl]-4-yl]carbonyl}-10,11-dihydro-5H-pyrrolo[2,1-c][1,4]benzodiazepine-3-carboxamide]
2720 | Cc1cc(C(=O)N2Cc3ccc(C(=O)N4CCN(C[C@H](O)CO)CC4)n3Cc3ccccc32)ccc1-c1ccccc1C(F)(F)F [Example 5, (2S)-3-{4-[(10-{[2-Methyl-2′-trifluoromethyl-[1,1′-biphenyl]-4-yl]carbonyl}-10,11-dihydro-5H-pyrrolo[2,1-c][1,4]benzodiazepin-3-yl)carbonyl]piperazin-1-yl}propane-1,2-diol]
1430 | Cc1cc(C(=O)N2Cc3ccc(C(=O)N(C)C[C@H](O)[C@@H](O)[C@H](O)[C@H](O)CO)n3Cc3ccccc32)ccc1-c1ccccc1C(F)(F)F [Example 4, 10-[(2-Methyl-2′-trifluoromethyl-[1,1′-biphenyl]-4-yl)carbonyl]-10,11-dihydro-5H-pyrrolo[2,1-c][1,4]benzodiazepine-3-carboxylic acid methyl-((2S,3R,4R,5R)-2,3,4,5,6-pentahydroxy-hexyl)-amide]
1080 | COc1cc(C(=O)N2Cc3ccc(C(=O)N(C)C[C@@H](O)[C@H](O)[C@H](O)[C@@H](O)CO)n3Cc3ccccc32)ccc1-c1ccccc1C(F)(F)F (stereo in doubt) [Example 23, 10-{[2-Methoxy-2′-trifluoromethyl-[1,1′-biphenyl]-4-yl]carbonyl}-N-methyl-N-[(2R,3S,4R,5S)-2,3,4,5,6-pentahydroxyhexyl]-10,11-dihydro-5H-pyrrolo[2,1-c][1,4]benzodiazepine-3-carboxamide]
2410 | Cc1cc(C(=O)N2Cc3ccc(C(=O)N4CCN(C[C@@H](O)CO)CC4)n3Cc3ccccc32)ccc1-c1ccccc1C(F)(F)F [Example 6, (2R)-3-{4-[(10-{[2-Methyl-2′-trifluoromethyl-[1,1′-biphenyl]-4-yl]carbonyl}-10,11-dihydro-5H-pyrrolo[2,1-c][1,4]benzodiazepin-3-yl)carbonyl]piperazin-1-yl}propane-1,2-diol]
227 | COc1cc(C(=O)N2Cc3ccc(C(=O)N(C)CC(O)CN(C)C)n3Cc3ccccc32)ccc1-c1ccccc1C(F)(F)F (stereo not drawn) [Example 22, N-[(3-Dimethylamino)-2-hydroxy-propyl]-10-{[2-methoxy-2′-trifluoromethyl-[1,1′-biphenyl]-4-yl]carbonyl}-N-methyl-10,11-dihydro-5H-pyrrolo[2,1-c][1,4]benzodiazepine-3-carboxamide]
1200 | CC(=O)OCC(CN(C)C(=O)c1ccc2n1Cc1ccccc1N(C(=O)c1ccc(-c3ccccc3C(F)(F)F)c(C)c1)C2)OC(C)=O (stereo not drawn) [Example 13, 2-(Acetyloxy)-1-({methyl[(10-{[2-methyl-2′-trifluoromethyl-[1,1′-biphenyl]-4-yl]carbonyl}-10,11-dihydro-5H-pyrrolo[2,1-c][1,4]benzodiazepin-3-yl)carbonyl]amino}methyl)ethyl acetate]

Compound | IC50 [nM]
{(2S)-1-[(10-{[2-Methoxy-2(trifluoromethyl)[1,1′-biphenyl]-4-yl]carbonyl}-10,11-dihydro-5H-pyrrolo[2,1-c][1,4]benzodiazepin-3-yl)carbonyl]pyrrolidin-2-yl}-methanol [Example 36] | 1510
